Where a chain is given by its changes, count along the chain named.
Legend:
Assay type in all cases: cell-based
ABCG36/PDR8/PEN3 [1] = molecular target: T1, ABCG36/PDR8/PEN3 (Arabidopsis thaliana, UniProt Q9XIE2); experiment: radiolabel export from transfected N. benthamiana protoplasts; also stimulates ATPase in microsomes; specific binding to Arabidopsis microsomes; conditions: labelled compound; export 25 °C, 15 min; ATPase with 50 μM compound at pH 9.0; binding at 10 nM
T1 construct: full length, 35S:ABCG36-GFP (GFP tag kept), Agrobacterium-transfected Nicotiana benthamiana mesophyll protoplasts or microsomes; full-size PDR-type ABC transporter
T1 sequence (Q9XIE2 1-1469): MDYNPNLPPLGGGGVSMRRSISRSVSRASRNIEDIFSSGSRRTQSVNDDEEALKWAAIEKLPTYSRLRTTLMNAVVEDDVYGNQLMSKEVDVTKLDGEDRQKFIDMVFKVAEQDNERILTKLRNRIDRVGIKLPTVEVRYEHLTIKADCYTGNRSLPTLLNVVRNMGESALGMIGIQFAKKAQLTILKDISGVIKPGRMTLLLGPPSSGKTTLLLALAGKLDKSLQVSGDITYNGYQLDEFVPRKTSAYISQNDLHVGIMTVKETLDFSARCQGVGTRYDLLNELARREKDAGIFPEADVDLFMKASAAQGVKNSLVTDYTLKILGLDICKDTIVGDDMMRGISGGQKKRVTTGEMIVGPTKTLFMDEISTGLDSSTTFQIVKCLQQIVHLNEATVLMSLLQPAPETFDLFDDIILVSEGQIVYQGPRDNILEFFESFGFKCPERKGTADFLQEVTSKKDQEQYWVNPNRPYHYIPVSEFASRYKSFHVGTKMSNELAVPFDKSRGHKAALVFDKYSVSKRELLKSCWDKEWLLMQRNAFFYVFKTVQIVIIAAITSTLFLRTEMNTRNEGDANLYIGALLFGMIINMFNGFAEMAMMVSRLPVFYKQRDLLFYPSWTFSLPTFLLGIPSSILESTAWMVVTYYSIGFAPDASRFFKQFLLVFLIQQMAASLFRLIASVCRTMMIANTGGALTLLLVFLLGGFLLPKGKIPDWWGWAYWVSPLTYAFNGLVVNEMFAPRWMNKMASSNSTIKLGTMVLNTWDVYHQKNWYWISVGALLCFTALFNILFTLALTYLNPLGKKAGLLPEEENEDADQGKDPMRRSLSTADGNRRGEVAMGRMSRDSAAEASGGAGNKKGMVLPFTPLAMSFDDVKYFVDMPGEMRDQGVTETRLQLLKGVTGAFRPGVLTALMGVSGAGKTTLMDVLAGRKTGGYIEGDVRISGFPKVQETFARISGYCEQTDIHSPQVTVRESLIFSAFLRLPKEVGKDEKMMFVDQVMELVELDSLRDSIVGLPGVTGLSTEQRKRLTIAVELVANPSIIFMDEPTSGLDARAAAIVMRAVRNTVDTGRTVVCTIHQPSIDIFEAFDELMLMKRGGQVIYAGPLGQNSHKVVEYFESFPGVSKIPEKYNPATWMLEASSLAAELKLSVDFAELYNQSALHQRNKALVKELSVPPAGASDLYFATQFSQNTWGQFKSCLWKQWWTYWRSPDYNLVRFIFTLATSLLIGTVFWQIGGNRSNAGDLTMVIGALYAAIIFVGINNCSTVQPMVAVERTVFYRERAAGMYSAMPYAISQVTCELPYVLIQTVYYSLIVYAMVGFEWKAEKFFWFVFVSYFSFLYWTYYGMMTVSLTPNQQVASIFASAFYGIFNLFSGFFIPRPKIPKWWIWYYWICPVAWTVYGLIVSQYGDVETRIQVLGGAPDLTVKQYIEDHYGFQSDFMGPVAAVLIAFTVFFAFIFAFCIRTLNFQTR

ABCG36/PDR8/PEN3 [2] = molecular target: T2, ABCG36/PDR8/PEN3 (Arabidopsis thaliana, UniProt Q9XIE2, L704S); experiment: radiolabel export from transfected N. benthamiana protoplasts; conditions: labelled compound; export 25 °C, 15 min
T2 construct: full length, 35S:ABCG36-GFP (GFP tag kept), Agrobacterium-transfected Nicotiana benthamiana mesophyll protoplasts or microsomes; full-size PDR-type ABC transporter
T2 sequence (Q9XIE2 1-1469 L704S): T1 sequence (Q9XIE2 1-1469) with L704S

ABCG36/PDR8/PEN3 [3] = molecular target: T3, ABCG36/PDR8/PEN3 (Arabidopsis thaliana, UniProt Q9XIE2, L704F); experiment: radiolabel export from transfected N. benthamiana protoplasts; also stimulates ATPase in microsomes; conditions: labelled compound; export 25 °C, 15 min; ATPase with 50 μM compound at pH 9.0
T3 construct: full length, 35S:ABCG36-GFP (GFP tag kept), Agrobacterium-transfected Nicotiana benthamiana mesophyll protoplasts or microsomes; full-size PDR-type ABC transporter
T3 sequence (Q9XIE2 1-1469 L704F): T1 sequence (Q9XIE2 1-1469) with L704F

Compound | radiolabel export from transfected N. benthamiana protoplasts; also stimulates A (ABCG36/PDR8/PEN3 [1]) | radiolabel export from transfected N. benthamiana protoplasts (ABCG36/PDR8/PEN3 [2]) | radiolabel export from transfected N. benthamiana protoplasts; also stimulates A (ABCG36/PDR8/PEN3 [3])
c1ccc2c(-c3nccs3)c[nH]c2c1 [CLX, 3-thiazol-2-yl-indole] | stimulated by its substrates (IBA and CLX) but not by non-transported indolic compounds | – | –
O=C(O)Cc1c[nH]c2ccccc12 [IAA] | – | gain-of-IAA transport for polar but uncharged serine | –
O=C(O)CCCc1c[nH]c2ccccc12 [IBA, indole-3-butyric acid] | stimulated by its substrates (IBA and CLX) but not by non-transported indolic compounds | – | the L704F (abcg36-5) variant had no effect on ABCG36-mediated IBA export

— article PMC12052975, “A key residue of the extracellular gate provides quality control contributing to ABCG substrate specificity” (Nature Communications, 2025)
